In US6469034B1, “Cyclohexenyl-ethyl-thiourea compounds for inhibiting HIV reverse transcriptase” (Parker Hughes Institute, priority 1999, dated 2002):
pIC50: −log10 of the molar value. Where two headings read alike, the source gives them in different places.

How the values were obtained:
HIV-1 strain HTLVIIIB = assay: Inhibition of HIV p24 antigen production in PBMC, strain HTLVIIIB; assay type: cell-based; details: read-out: IC50 HTLVIIIB
Description: (§1) In addition, the anti-HIV activity of the compounds was measured by determining their ability to inhibit the replication of the HIV-1 strains HTLVIIIB, RT-MDR, A17, and A17 variant in peripheral blood mononuclear cells (PBMC) from healthy volunteer donors, using the method described in Uckun et.al., 1998, Antimicrobial Agents and Chemotherapy 42:383.
(§2) Normal human peripheral blood mononuclear cells (PBMNC) from HIV-negative donors were cultured 72 hours in RPMI 1640 supplemented with 20% (v/v) heat-inactivated fetal bovine serum (FBS), 3% interleukin-2,2 mM L-glutairine, 25 mM HEPES, 2 μL, NAHCO, […] gentamicin, and 4 μg/mL phytohemagglutinin prior to exposure to HIV-1 or other HIV strain at a multiplicity of infection (MOI) of 0.1 during a one-hour adsorption period at 37° C. in a humidified 5% CO2 atmosphere. Subsequently, cells were cultured in 96-well microplates (100 μL/well; 2×10^6 cells/mL, triplicate wells) in the presence of various inhibitor concentrations. Aliquots of culture supernatants were removed from the wells on the 7th day after infection for p24 antigen p24 enzyme immunoassays (EIA), as previously described in Erice et al., 1993, Antimicrob. Ag. Chemotherapy 37:385-838. The applied p24 EIA was the unmodified kinetic assay commercially available from Coulter Corporation/Immunotech, Inc. (Westbrook, Me.). Percent inhibition of viral replication was calculated by comparing the p24 values from the test substance-treated infected cells with p24 values from untreated infected cells (i.e, virus controls).
(§3) RT-MDR was obtained through the AIDS Research and Reference Reagent Program, from Dr. Bendan Larder, and is described in Larder et al., 1993, Nature, 365, 451-453.

[1] = system: multidrug resistant HIV-1 strain RT-MDR; assay: microbe, parasite or virus in culture; assay type: cell-based; details: for times more effective against RT-MDR than against HTLVIIIB: ratio RT-MDR vs HTLVIIIB; for times more potent than AZT against RT-MDR: vs AZT; for times more potent than MKC-442 against RT-MDR: vs MKC-442; for times more potent than delavirdine against RT-MDR: vs delavirdine; for times more potent than nevirapine against RT-MDR: vs nevirapine; for times more potent than trovirdine against RT-MDR: vs trovirdine
Description: as §1, §2, §3

[2] = system: A17 variant with both Y181C and K103N mutations in RT; assay: microbe, parasite or virus in culture; assay type: cell-based, HIV-1; details: read-out: IC50 A17 variant
Description: as §1, §2, §3

[3] = system: RT Y181C mutant A17 strain; assay: microbe, parasite or virus in culture; assay type: cell-based, HIV-1; details: for pIC50: read-out: IC50 A17
Description: as §1, §2, §3

[4] = Microculture tetrazolium assay (MTA, XTT) for cytotoxicity; assay type: cell-based; details: for CC50: cytotoxicity, XTT; for toxicity at effective concentrations: in words
[5] = biological target: T1, purified recombinant HIV RT (Human immunodeficiency virus type 1 group M subtype B, UniProt P03366); assay: Purified RT assay, cell-free Quan-T-RT scintillation proximity assay; assay type: biochemical
T1 construct: Addition of 10 mU of recombinant HIV RT
Description: In the assay, a DNA/RNA template is bound to SPA beads via a biotin/strepavidin linkage. The primer DNA is a 16-mer oligo(T) which has been annealed to a poly(A) template. The primer/template is bound to a strepavidin-coated SPA bead.
^3H-TTP is incorporated into the primer by reverse transcription. […] The compound being tested was added to the reaction mixture at 0.001 μM-100 μM concentrations. […] The reaction was stopped by addition of 0.2 ml of 120 mM EDTA. The samples were counted in an open window using a Beckman LS 7600 instrument and IC50 values were calculated by comparing the measurements to untreated samples.

[6] = Human immunodeficiency virus 1, PBMC, 168 h
[7] = Human immunodeficiency virus 1, PBMC, 168 h, read-out: IC50 RT-MDR
[8] = Human immunodeficiency virus 1, PBMC, read-out: IC50 against RT-MDR
[9] = ranking order of potency, read-out: IC50 against RT-MDR
[10] = recombinant HIV RT, 37° C., 1 hour, read-out: IC50 rRT

Row | Compound | pIC50 (HIV-1 strain HTLVIIIB; [6]) | pIC50 [1, 7] | pIC50 [1, 8] | pIC50 [2, 6] | pIC50 [3, 6] | CC50 [4] | pIC50 [5, 10] | pIC50 [5] | melting point | also measured
1 | Cc1ccnc2c1NC(=O)c1cccnc1N2C1CC1 [Nevirapine, reference compound] | 7.47 | 5.30 | 5.30 | < 4.00 | < 4.00 | 10500 nM | – | – | – | –
2 | CC(C)Nc1cccnc1N1CCN(C(=O)c2cc3cc(NS(C)(=O)=O)ccc3[nH]2)CC1 [Delavirdine, reference compound] | 8.05 | 6.40 | 6.40 | < 4.00 | 4.30 | 3600 nM | – | – | – | –
3 | Cc1cn([C@H]2C[C@H](N=[N+]=[N-])[C@@H](CO)O2)c(=O)[nH]c1=O [AZT, reference compound] | – | – | – | – | – | > 100000 nM | – | – | – | pIC50 [1, 9]: 6.70; pIC50 ([3]; p24 production in PBMC, day 7): 8.22
4 | S=C(NCCC1C2CC3CC(C2)CC1C3)Nc1ccc(Br)cn1 (stereo not drawn) [HI-504, N-[2-(5-Bromopyridinyl)]-N′-[2-(2-Adamantyl)]thiourea] | – | – | – | – | – | – | < 4.00 | – | – | –
5 | CCOCn1c(Cc2ccccc2)c(C(C)C)c(=O)[nH]c1=O [MKC-442, reference compound] | – | 6.52 | 6.52 | – | – | > 100000 nM | 6.10 | – | – | –
6 | FC(F)(F)c1ccc(NC(=S)NCCC2=CCCCC2)nc1 [HI-347, N-[2-(5-Trifluoromethylpyridinyl)]-N′-[2-(1-Cyclohexenyl)ethyl]thiourea] | 7.10 | 7.42 | – | < 4.00 | 6.52 | > 100000 nM | – | 5.40 | 161 to 162 °C | –
7 | S=C(NCCC1=CCCCC1)Nc1ccc(Cl)cn1 [HI-445, N-[2-(5-Chloropyridinyl)]-N′-[2-(1-Cyclohexenyl)ethyl]thiourea] | 8.52 | 9.00 | 9.00 | 4.52 | 7.17 | > 100000 nM | – | 6.30 | 165 °C | times more effective against RT-MDR than against HTLVIIIB [1]: 3 times; times more potent than AZT against RT-MDR [1]: 200 times; times more potent than MKC-442 against RT-MDR [1]: 300 times; times more potent than delavirdine against RT-MDR [1]: 400 times; times more potent than nevirapine against RT-MDR [1]: 5000 times; times more potent than trovirdine against RT-MDR [1]: 20 times; fold more effective than nevirapine or delavirdine against A17 ([3]; vs nevirapine or delavirdine): > 1,400 fold; fold more effective than trovirdine against A17 ([3]; vs trovirdine): > 7 fold; toxicity at effective concentrations [4]: Neither compound exhibited significant toxicity
8 | S=C(NCCC1=CCCCC1)Nc1ccc(Br)cn1 [HI-346, N-[2-(5-Bromopyridinyl)]-N′-[2-(1-Cyclohexenyl)ethyl]thiourea] | 8.52 | 9.00 | 9.00 | 4.73 | – | > 100000 nM | – | 6.40 | 172 to 173 °C | times more effective against RT-MDR than against HTLVIIIB [1]: 3 times; times more potent than AZT against RT-MDR [1]: 200 times; times more potent than MKC-442 against RT-MDR [1]: 300 times; times more potent than delavirdine against RT-MDR [1]: 400 times; times more potent than nevirapine against RT-MDR [1]: 5000 times; times more potent than trovirdine against RT-MDR [1]: 20 times; toxicity at effective concentrations [4]: Neither compound exhibited significant toxicity
9 | CC1(C)C2CCC(CNC(=S)Nc3ccc(Br)cn3)C1C2 (stereo not drawn) [HI-444, N-[2-(5-Bromopyridinyl)]-N′-[2-(2-Myrtanyl)]thiourea] | – | – | – | – | – | – | < 4.00 | – | 180 to 181 °C | –
10 | S=C(NCCc1ccccn1)Nc1ccc(Br)cn1 [Trovirdine, N-[2-(5-Bromopyridinyl)]-N′-[2-(Pyridinyl)]thiourea, reference compound] | – | – | – | – | – | > 100000 nM | 6.10 | – | – | pIC50 (HIV-1 strain HTLVIIIB; p24 production in PBMC, day 7): 8.15; pIC50 [1, 9]: 7.70; pIC50 ([2]; p24 production in PBMC, day 7): < 4.00; pIC50 ([3]; p24 production in PBMC, day 7): 6.30
